Measurements as given in patent US10722514B2 (FLX Bio, Inc., priority 2017, dated 2020).
Like-named read-outs stand apart in the source and are kept apart here.

Biological target: T1, recombinant full-length USP7 (Homo sapiens, UniProt Q93009)
T1 construct: A 25 μl reaction volume containing recombinant full-length USP7 (62 pM)
Assay: USP7-mediated ubiquitin-rhodamine cleavage assay
Assay type: biochemical
Conditions: recombinant full-length USP7 62 pM, ubiquitin-rhodamine 100 nM, 1 hour reaction at room temperature
In short: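 USP7 (62 pM) in 20 mM HEPES pH 7.3, 150 mM NaCl, 1 mM TCEP, 125 μg/ml BSA was preincubated with compound (1% DMSO) for 30 min at room temperature. Ubiquitin-rhodamine (100 nM final) was then added for 1 hour, the reaction stopped with acetic acid, and fluorescence read; IC50 from 4-parameter fit.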

[1] = 30-minute incubation with compound, read-out: Potency: USP7 IC50
[2] = 30-minute pre-incubation, read-out: Potency (USP7 IC50)

T1 sequence (Q93009 whole entry): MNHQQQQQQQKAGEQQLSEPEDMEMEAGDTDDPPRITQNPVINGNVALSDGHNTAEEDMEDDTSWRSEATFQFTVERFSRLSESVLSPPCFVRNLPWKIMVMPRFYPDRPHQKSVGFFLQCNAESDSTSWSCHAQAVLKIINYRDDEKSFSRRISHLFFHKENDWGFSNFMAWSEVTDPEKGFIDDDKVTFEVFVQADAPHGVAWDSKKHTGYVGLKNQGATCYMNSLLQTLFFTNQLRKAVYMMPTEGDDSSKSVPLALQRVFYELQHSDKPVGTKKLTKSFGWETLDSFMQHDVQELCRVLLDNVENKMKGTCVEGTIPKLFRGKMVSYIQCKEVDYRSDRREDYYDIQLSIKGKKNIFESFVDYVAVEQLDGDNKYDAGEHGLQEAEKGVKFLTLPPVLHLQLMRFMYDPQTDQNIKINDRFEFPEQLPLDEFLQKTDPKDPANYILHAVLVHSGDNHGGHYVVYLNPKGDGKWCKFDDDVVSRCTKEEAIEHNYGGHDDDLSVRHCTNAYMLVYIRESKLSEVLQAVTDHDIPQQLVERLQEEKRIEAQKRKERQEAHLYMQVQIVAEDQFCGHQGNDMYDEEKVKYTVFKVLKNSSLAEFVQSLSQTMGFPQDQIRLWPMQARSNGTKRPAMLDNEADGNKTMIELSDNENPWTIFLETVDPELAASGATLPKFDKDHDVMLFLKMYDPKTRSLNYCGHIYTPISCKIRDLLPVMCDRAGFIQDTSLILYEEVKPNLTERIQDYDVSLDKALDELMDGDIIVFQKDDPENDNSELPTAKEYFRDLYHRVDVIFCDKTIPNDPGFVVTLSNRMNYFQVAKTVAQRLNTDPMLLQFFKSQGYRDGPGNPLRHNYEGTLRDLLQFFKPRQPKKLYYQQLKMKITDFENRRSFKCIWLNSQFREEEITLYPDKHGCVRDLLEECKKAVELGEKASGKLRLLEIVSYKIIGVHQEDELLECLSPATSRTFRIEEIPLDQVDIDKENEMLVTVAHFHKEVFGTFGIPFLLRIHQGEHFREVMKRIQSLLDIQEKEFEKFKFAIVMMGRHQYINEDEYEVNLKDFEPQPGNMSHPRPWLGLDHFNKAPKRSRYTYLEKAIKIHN

Row | SMILES | IC50 [1] | IC50 [2]
1 | O=C(O)C(F)(F)F.[2H]C1([2H])C(=O)N(Cc2cc3nccc(-c4cc(Cl)cc(C)c4O[C@@H]4CNC[C@@H]4F)c3s2)C(=O)C1([2H])[2H] [Example 384, 1-[[7-[5-chloro-2-[(3R,4S)-4-fluoropyrrolidin-3-yl]oxy-3-methyl-phenyl]thieno[3,2-b]pyridin-2-yl]methyl]-3,3,4,4-tetradeuterio-pyrrolidine-2,5-dione; 2,2,2-trifluoroacetic acid] | < 1 µM | 
2 | Cc1cc(Cl)cc(-c2ccnc3cc(Cn4c(=O)ccn(C)c4=O)sc23)c1OC1CC(NCCO)C1 (stereo not drawn) [Example 532, 3-[[7-[5-chloro-2-[3-(2-hydroxyethylamino)cyclobutoxy]-3-methyl-phenyl]thieno[3,2-b]pyridin-2-yl]methyl]-1-methyl-pyrimidine-2,4-dione; 2,2,2-trifluoroacetic acid] |  | < 1 µM
3 | Cc1cc(Cl)cc(-c2ccnc3cc(CO)sc23)c1OC1COC2(CNC2)C1 (stereo not drawn) [Example 40, (7-(2-((5-Oxa-2-azaspiro[3.4]octan-7-yl)oxy)-5-chloro-3-methylphenyl)thieno[3,2-b]pyridin-2-yl)methanol] | 10 to 30 µM | 
4 | Cc1cc(Cl)cc(-c2ccnc3cc(CO)sc23)c1O[C@H]1C[C@H]2CC[C@@H](C1)N2 [Example 193, (7-(2-(((1R,3r,5S)-8-Azabicyclo[3.2.1]octan-3-yl)oxy)-5-chloro-3-methylphenyl)thieno[3,2-b]pyridin-2-yl)methanol] | 1 to 10 µM | 
5 | Cc1cc(Cl)cc(-c2ccnc3cc(CN4C(=O)CCC4=O)sc23)c1O[C@@H]1CNC[C@@H]1N=[N+]=[N-] [Example 83, 1-((7-(2-(((3R,4S)-4-Azidopyrrolidin-3-yl)oxy)-5-chloro-3-methylphenyl)thieno[3,2-b]pyridin-2-yl)methyl)pyrrolidine-2,5-dione] | < 1 µM | 
6 | Cc1cc(Cl)cc(-c2ccnc3cc(Cn4c(=O)ccn(CC(F)(F)F)c4=O)sc23)c1O[C@H]1CC[C@](C)(N2CCOCC2)C1 [Example 612, 3-[[7-[5-chloro-3-methyl-2-[(1S,3S)-3-methyl-3-morpholino-cyclopentoxy]phenyl]thieno[3,2-b]pyridin-2-yl]methyl]-1-(2,2,2-trifluoroethyl)pyrimidine-2,4-dione; 2,2,2-trifluoroacetic acid] |  | < 1 µM
7 | CC(=O)NCc1cc2nccc(-c3cc(Cl)cc(C)c3O[C@H]3CCCNC3)c2s1 [Example 263, (S)—N-((7-(5-Chloro-3-methyl-2-(piperidin-3-yloxy)phenyl)thieno[3,2-b]pyridin-2-yl)methyl)acetamide] | 1 to 10 µM | 
8 | Cc1cc(Cl)cc(-c2ncnc3cc(CN4C(=O)CCC4=O)sc23)c1OC1CCNCC1 [Example 177, 1-((4-(5-Chloro-3-methyl-2-(piperidin-4-yloxy)phenyl)thieno[3,2-d]pyrimidin-6-yl)methyl)pyrrolidine-2,5-dione] | < 1 µM | 
9 | Cc1cc2nccc(-c3cc(C#N)cc(C)c3O[C@H]3CCCNC3)c2s1 [Example 182, (S)-3-Methyl-5-(2-methylthieno[3,2-b]pyridin-7-yl)-4-(piperidin-3-yloxy)benzonitrile] | 10 to 30 µM | 
10 | Cc1cc(Cl)cc(-c2ccnc3cc(CN4C(=O)CCC4=O)sc23)c1O[C@@H]1CNC[C@H](F)C1 [Example 424, 1-[[7-[5-chloro-2-[[(3S,5R)-5-fluoro-3-piperidyl]oxy]-3-methyl-phenyl]thieno[3,2-b]pyridin-2-yl]methyl]pyrrolidine-2,5-dione] |  | < 1 µM
11 | Cc1cc(C(F)(F)F)cc(-c2ccnc3cc(Cn4c(=O)ccn(C)c4=O)sc23)c1OC1CCNCC1 [Example 446, 1-methyl-3-[[7-[3-methyl-2-(4-piperidyloxy)-5-(trifluoromethyl)phenyl]thieno[3,2-b]pyridin-2-yl]methyl]pyrimidine-2,4-dione] |  | < 1 µM
12 | Cc1cc(Cl)cc(-c2ccnc3cc(Cn4c(=O)ccn(CC(F)(F)F)c4=O)sc23)c1O[C@@H]1CNC[C@@H]1C [Example 566, 3-[[7-[5-chloro-3-methyl-2-[(3S,4S)-4-methylpyrrolidin-3-yl]oxy-phenyl]thieno[3,2-b]pyridin-2-yl]methyl]-1-(2,2,2-trifluoroethyl)pyrimidine-2,4-dione] |  | < 1 µM
